# Data reported in US20030198617A1, “Pharmaceutical tryptophan containing dipeptide compositions and methods of use thereof” (priority 1993, published 2003).
# Where two headings read alike, the source gives them in different places. Marks after values point to notes of the source that are not given here.
# Assays:
# [1] = Blood parameters of Chernobyl victims after 3 years of treatment; type: in vivo, human; conditions: after therapy, IM862
# From the text: Blood parameters after 3 years of such treatment were restored to the statistical norm prior to their exposure to the radiation.
# corneal epithelium = experiment: Corneal epithelium restoration (experimental data); type: in vivo; conditions: IM862 IM, intranasally or ocular installation
# T-cells = experiment: T-cell rosette assay; type: cell-based; conditions: 10^6 cells per ml
# Thymectomized patients = type: in vivo, human; conditions: IM862 100 μg daily 10 days, repeated every 4-6 months, 12 patients
# From the text: Prior to therapy these individuals had experienced frequent serious infections including upper respiratory infections.
# [2] = Patients with fever, toxic symptoms, jaundice (Example 101); type: in vivo, human; conditions: IM862 IM or intranasally 5-10 days, 39 patients
# From the text: A total of 39 patients were studied with 27 patient controls. […] Immunological indices were normalized.
# [3] = Immune status in early terms after irradiation; type: in vivo, human; conditions: after IM862 therapy
# Protocol: The patients described in Example 42 were tested for blood parameters the first few days after exposure to the radiation of the Chernobyl accident. It could be seen from Table 3 below that response to the treatment was observed even after a few weeks of treatment.
# [4] = tested on: methicillin-resistant Staphylococcal aureus
# Protocol: Animals were inoculated intraperitoneally with 10×LD of Staphylococcal aureus suspended in brain-heart infusion broth containing 5 percent mucin. The antibiotic was administered s.c., i.p., or p.o., one hour following bacterial inoculation and deaths occurring during the subsequent three days are recorded.
# Two control experiments were conducted. […] The number of survivors at 72 hours was determined. […] The number of survivors at 72 hours was again recorded.
# Test mice were divided into 3 groups.
# Staphylococci = experiment: Antibiotic-sensitivity of staphylococci from skin lesions (MIC, series cultivation); type: cell-based; conditions: after IM862 use (initially 10 of the 15)
# From the text: Staphylococci extracted from dermal lesions were initially sensitive to 10 of the 15 antibiotics being assayed (Table 25).
# [5] = Pediatric purulent maxillary sinusitis, local IM862; type: in vivo, human; conditions: for B-lymphocytes % / B-lymphocytes abs. / Immune complexes / Leukocytes, abs / Lymphocytes % / Lymphocytes, abs / O-lymphocytes % / O-lymphocytes abs. / T-lymphocytes % / T-lymphocytes abs. / Lysozyme: after treatment c IM862
# [6] = Group 2: IM862 0.01 mg/kg 3 days before inoculation, ampicillin control (0), 5 test animals, 72 hours
# [7] = Group 3: IM862 0.01 mg/kg 3 days + ampicillin 100 mg/kg 1 hr, 5 test animals, 72 hours
# [8] = Group 4: IM862 0.01 mg/kg 3 days + ampicillin 10 mg/kg 1 hr, 5 test animals, 72 hours
# [9] = Group 5: IM862 0.01 mg/kg 3 days + ampicillin 1 mg/kg 1 hr, 5 test animals, 72 hours
# [10] = Group 6: IM862 0.001 mg/kg 3 days + ampicillin 100 mg/kg 1 hr, 5 test animals, 72 hours
# [11] = Group 7: IM862 0.001 mg/kg 3 days + ampicillin 10 mg/kg 1 hr, 5 test animals, 72 hours
# [12] = Group 8: IM862 0.001 mg/kg 3 days + ampicillin 1 mg/kg 1 hr, 5 test animals, 72 hours
# [13] = acute purulent maxillary sinusitis
# [14] = chronic purulent maxillary sinusitis and Highmore ethmoiditis
# [15] = second group, after IM862 treatment
substance,measurement,setting,value
Glu-Trp [IM862],"B-Ig+, %",[1],11.0 ± 0.3%
same,"B-Ig+, abs",[1],0.23 ± 0.04 10^9/l
same,"B-IgA+, %",[1],1.9 ± 0.3%
same,"B-IgA+, abs",[1],0.04 ± 0.002 10^9/l
same,"B-IgG+, %",[1],4.8 ± 0.5%
same,"B-IgG+, abs",[1],0.09 ± 0.007 10^9/l
same,"B-IgM+, %",[1],4.1 ± 0.6 %
same,"B-IgM+, abs",[1],0.12 ± 0.003 10^9/l
same,"CD2-DR+, &",[1],32 ± 3 &
same,"CD2-DR+, abs",[1],0.66 ± 0.10** 10^9/l
same,"CD3, %",[1],59.2 ± 2.1 %
same,"CD3, abs",[1],1.21 ± 0.15 10^9/l
same,"CD4, %",[1],36.2 ± 1.7%
same,"CD4, abs",[1],0.74 ± 0.08 10^9/l
same,"CD8, %",[1],23.2 ± 2.1 %
same,"CD8, abs",[1],0.48 ± 0.07** 10^9/l
same,"IMI, %",[1],75 ± 6 %
same,IgA,[1],1.2 ± 0.4 g/L
same,IgG,[1],10.9 ± 1.3 g/L
same,IgM,[1],1.06 ± 0.06 g/L
same,"Leukocytes, abs",[1],5.6 ± 0.4 10^9/l
same,"Lymphocytes, abs",[1],2.1 ± 0.3 10^9/l
same,T4/T8,[1],1.58 ± 0.04
same,corneal epithelium,corneal epithelium,restoration and regeneration of corneal epithelium
same,concentration of peak effect for rosette activity,T-cells,approximately 0.0006 mcg/ml
same,clinical effect,Thymectomized patients,normalization of immunologic indices
same,clinical effect,[2],reduction of fever
same,C3,[3],0.68 ± 0.04 g/L
same,"CD2, %",[3],50.9 ± 2.4%
same,"CD2, abs",[3],1.13 ± 0.07** 10^9/l
same,"CD2-DR+, %",[3],31 ± 3 %
same,"CD2-DR+, abs",[3],0.69 ± 0.08** 10^9/l
same,"CD19, %",[3],30.5 ± 1.9 %
same,"CD19, abs",[3],0.68 ± 0.04** 10^9/l
same,"E-RFC, %",[3],23.4 ± 2.6%
same,IgA,[3],1.11 ± 0.09 g/L
same,IgG,[3],9.2 ± 0.7 g/L
same,IgM,[3],0.58 ± 0.10 g/L
same,"LMI with ConA, %",[3],60 ± 7 %
same,"Leukocytes, abs",[3],6.4 ± 0.8** 10^9/l
same,"Lymphocytes, abs",[3],2.27 ± 0.16** 10^9/l
same,Survivors,"[4]; 0.01 mg/kg IM862 3 days prior to bacterial inoculum, no antibiotic",Four of 5 animals survived
same,Percent ip Survivors,[4]; [6],80%
same,Survivors,[4]; [6],4
same,Percent ip Survivors,[4]; [7],100%
same,Survivors,[4]; [7],5
same,Percent ip Survivors,[4]; [8],100%
same,Survivors,[4]; [8],5
same,Percent ip Survivors,[4]; [9],100%
same,Survivors,[4]; [9],5
same,Percent ip Survivors,[4]; [10],100%
same,Survivors,[4]; [10],5
same,Percent ip Survivors,[4]; [11],100%
same,Survivors,[4]; [11],5
same,Percent ip Survivors,[4]; [12],100%
same,Survivors,[4]; [12],5
same,number of the 15 tested antibiotics to which organisms from the infected foci were sensitive,Staphylococci,14
same,B-lymphocytes %,[5]; [13],21.9 ± 2.1%
same,B-lymphocytes abs.,[5]; [13],778.0 ± 89.9
same,Immune complexes,[5]; [13],113.3 ± 15.3
same,"Leukocytes, abs",[5]; [13],7200.0 ± 234.5
same,Lymphocytes %,[5]; [13],44.7 ± 1.7%
same,"Lymphocytes, abs",[5]; [13],3281.3 ± 235.0
same,O-lymphocytes %,[5]; [13],34.3 ± 2.4%
same,O-lymphocytes abs.,[5]; [13],1082.0 ± 21.0
same,T-lymphocytes %,[5]; [13],41.8 ± 1.2%
same,T-lymphocytes abs.,[5]; [13],1420.3 ± 131.6
same,Lysozyme,"[5]; acute purulent maxillary sinusitis, outwash from sinuses",45.0 ± 5.9
same,B-lymphocytes %,[5]; [14],20.7 ± 0.7%
same,B-lymphocytes abs.,[5]; [14],562.0 ± 38.1
same,Immune complexes,[5]; [14],90.8 ± 10.0
same,"Leukocytes, abs",[5]; [14],6650.0 ± 262.2
same,Lymphocytes %,[5]; [14],41.5 ± 2.6%
same,"Lymphocytes, abs",[5]; [14],2761.8 ± 212.6
same,Lysozyme,[5]; [14],52.4 ± 4.1
same,O-lymphocytes %,[5]; [14],37.4 ± 1.9%
same,O-lymphocytes abs.,[5]; [14],1052.5 ± 109.3
same,T-lymphocytes %,[5]; [14],41.8 ± 1.0%
same,T-lymphocytes abs.,[5]; [14],1109.8 ± 74.1
same,time until improvement was noted,[5]; first group,2 to 3 days
same,average hospital stay,[5]; first group (acute and subacute),9.2 days
same,quantity of crystallization centers in irrigated fluid,"[5]; first group, end of treatment",30-50
same,"cessation of exudation, number of patients","[5]; first group, in 7-9 days of treatment",3 patients
same,"cessation of exudation, number of patients","[5]; first group, on the 6th day of treatment",5 patients
same,"nasal breathing and general sense of wellness normalized, number of patients",[5]; second group,38 patients
same,average hospital stay,[5]; second group (chronic),8 days
same,"immunoglobulin M remained elevated, number of patients",[5]; [15],24 patients
same,"serum immunoglobulin A normalized, number of patients",[5]; [15],10 patients
same,"serum immunoglobulin G normalized, number of patients",[5]; [15],6 patients
same,increase in exudation from the affected sinuses,"[5]; second group, at 3-4 days of treatment vs second 24-hour period",10-15%
same,quantity of crystallization centers in irrigated fluid,"[5]; second group, control crystallograms",50-60
same,"disappearance of edema of the nasal mucosa, number of patients","[5]; second group, following 4-5 days of treatment",32 patients
same,"exudate attained a mucous character, number of patients","[5]; second group, in 3-4 days",27 patients
same,"cessation of exudation, number of patients","[5]; second group, in 4-6 days",18 patients
same,"exudate attained a mucous character, number of patients","[5]; second group, in 5-6 days",13 patients
same,"cessation of exudation, number of patients","[5]; second group, in 7-9 days",20 patients
same,"exudate attained a mucous character, number of patients","[5]; second group, in 7-9 days",two
same,"cessation of exudation, number of patients","[5]; second group, in 10-14 days",4 patients
same,therapeutic action during localized use,[5]; various forms of paranasal sinusitis,"normalization of nasal breathing, decrease in nasal cavity mucosal edema, cessation of exudation from the involved sinuses"
